Patent US20240124524A1, “Agonist of Tacr2” (University of Copenhagen, priority 2019, published 2024)
Read-outs that look alike come from different tables or passages of the source.

How the values were obtained:
human brown adipose = conditions: cited from earlier work
[1] = tested on: diet induced obese (DIO) mice; experiment: Insulin tolerance test after Neurokinin A treatment; type: in vivo, mice (male C57Bl/6); conditions: vs control mice
Protocol: (§1) Oxygen consumption was measured every 5 minutes using the PhenoMaster. Data is representative of all days and show means±SEM of n=6. (b) Weight was measured every day throughout the experimental period. […] (c) Insulin tolerance test was performed in 3h fasted mice the day after treatment, and mice received 1 UI per kg lean body mass insulin intraperitoneal. […] (d) The three major adipose tissues were harvested weighed upon termination of experiment.
Mice were fasted for 3 hours prior to intra peritoneal insulin tolerance test (IPITT). Insulin (Actrapid, Novo Nordisk, DK) was dosed at 1 IU per kg lean body mass measured prior to treatment. Blood glucose was determined using glucometer from Roche. Lower blood glucose levels indicate greater insulin sensitivity.

[2] = tested on: diet induced obese (DIO) mice; experiment: Neurokinin A treatment of diet induced obese mice; type: in vivo, mice (male C57Bl/6)
Protocol: as §1
All animal experiments were performed according to Danish animal legislation, with ad libitum access to food and water and 12 hour light-dark cycle. Male C57Bl/6 mice were purchased from Janvier (Denmark) at four weeks of age and acclimatized for one week prior to experimentation. For high fat diet studies, male C57Bl/6 mice were housed at room temperature and fed a 60% high fat diet (Research diets, D12492, Denmark) for 18 weeks. After being fed this diet, the mice were highly obese, typically having a body weight in the range of 42 to 45 g. These mice may also be referred to as diet induced obese (DIO) mice. Mice were randomized according to their weight and body composition measured by MRI scan (EchoMRI, TX, USA) before single-housing for at least one week prior treatment. Oxygen consumption and […] (RER) were measured using PhenoMaster (TSE-Systems, Germany). Food consumption was manually assessed every second day.
For treatment, NKA was diluted in Gelofusine® (B. Braun, DK) prior to subcutaneous injection. Mice were treated twice daily for 9 days.

mTacr2 [3] = target: T1, mTacr2 (Mus musculus, UniProt P30549); experiment: IP3 assay with 0.2% or 2% BSA (BSA binding); type: cell-based; conditions: for EC50: printed as log EC50 with negative sign
T1 construct: host or cells: HEK293
T1 sequence (P30549 1-384): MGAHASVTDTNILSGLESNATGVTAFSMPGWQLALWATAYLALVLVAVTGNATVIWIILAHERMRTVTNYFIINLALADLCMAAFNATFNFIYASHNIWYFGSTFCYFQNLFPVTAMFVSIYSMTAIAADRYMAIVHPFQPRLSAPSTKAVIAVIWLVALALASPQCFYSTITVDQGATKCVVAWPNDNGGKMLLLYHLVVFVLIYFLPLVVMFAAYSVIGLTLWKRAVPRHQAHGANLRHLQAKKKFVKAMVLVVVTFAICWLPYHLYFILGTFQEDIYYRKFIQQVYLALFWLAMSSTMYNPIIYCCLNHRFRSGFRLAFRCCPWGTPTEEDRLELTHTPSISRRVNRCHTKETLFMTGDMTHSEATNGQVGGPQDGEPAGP
Protocol: (§2) HEK293 cells were transiently transfected with plasmid (pcDNA3.1, Genscript, NJ, USA) encoding human or mouse Tacr1-3 using Lipofectamine 2000 (Thermo Fisher, Denmark). After six hours of transfection, cells were loaded with 5 μCi myo-[3H]inositol (Perkin Elmer, Denmark) in full maintenance and cultured overnight. […] After treatment, cells were extracted with 10 mM formic acid and cell membranes were captured using poly-L-lysine coated SPA beads (Perkin Elmer, Denmark), and analyzed on Top Counter (Perkin Elmer, Denmark).
(§3) Data was analyzed using GraphPad Prism 7 (GraphPad, CA, USA),using 4 parametric logistic curve fitting. The data analysis included calculation of the top value, the bottom value, the hill slope as well as the log EC50.

primary brown adipocytes = experiment: Oxygen consumption rate, Seahorse XF-96 Flux Analyzer; type: cell-based; conditions: 72 hours NKA treatment; primary brown adipocytes not transfected with Tacr2; FIG. 3b
Protocol: Primary brown pre-adipocytes were isolated from intrascapular brown fat pads by collagenase type 1 (Worthington, NJ, USA) digestion on horizontal shaking water bath at 37° C. for 50 minutes with vortexing every 10 minutes. Collagenase was diluted in KRB with free fatty acid free BSA (Sigma-Aldrich, Denmark) in a ratio of 1:10. The enzymatic reaction was stopped by addition of growth media, and cell suspension was pelleted, resuspended in growth media before straining through a 40 μm nylon mesh (VWR, Denmark) to avoid tissue clumps. Pre-adipocytes were expanded in DMEM (Gibco, Denmark) supplemented with 10% fetal bovine serum (Invitrogen, Denmark) and 1% penicillin and streptomycin (Lonza, Denmark) until confluency. The day after reach of confluency, primary brown pre-adipocytes were differentiated using a cocktail consisting of insulin (0.5 mg/mL), rosiglitazone (1 mM), dexamethasone (100 μM), IBMX (50 mM) and T3 (1 μM) for two days, thereafter cells were maintained in growth media containing insulin and T3 throughout the experimental period. Maintenance media was changed every second day. Cells were grown at 37° C. with 10% CO2.
(§4) Oxygen consumption was measured using the Seahorse XF-96 Flux Analyzer (Seahorse Bioscience, Denmark). […] All readings were performed over a two minutes period and mixing was performed for three minutes. […]

mouse Tacr2 = target: T2, mouse Tacr2 (Mus musculus, UniProt P30549); experiment: IP3 assay in primary brown adipocytes transfected with Tacr2; type: cell-based; conditions: 24 hours NKA treatment; Tacr2 over-expressing primary brown adipocytes; FIG. 3a
T2 construct: host or cells: primary brown adipocytes
T2 sequence (P30549 1-384): T1 sequence (P30549 1-384)
Protocol: Primary brown pre-adipocytes were isolated from intrascapular brown fat pads by collagenase type 1 (Worthington, NJ, USA) digestion on horizontal shaking water bath at 37° C. for 50 minutes with vortexing every 10 minutes. Collagenase was diluted in KRB with free fatty acid free BSA (Sigma-Aldrich, Denmark) in a ratio of 1:10. The enzymatic reaction was stopped by addition of growth media, and cell suspension was pelleted, resuspended in growth media before straining through a 40 μm nylon mesh (VWR, Denmark) to avoid tissue clumps. Pre-adipocytes were expanded in DMEM (Gibco, Denmark) supplemented with 10% fetal bovine serum (Invitrogen, Denmark) and 1% penicillin and streptomycin (Lonza, Denmark) until confluency. […]
Primary brown adipocytes were loaded with 5 μCi myo-[3H]inositol (Perkin Elmer, Denmark) in full maintenance media at the day after electroporation, and incubated overnight. […] After treatment, cells were extracted with 10 mM formic acid and cell membranes were captured using poly-L-lysine coated SPA beads (Perkin Elmer, Denmark), and analyzed on Top Counter (Perkin Elmer, Denmark).
as §4

mTacr2 [4] = target: T1, mTacr2; experiment: IP3 assay in transfected HEK293 cells; type: cell-based
Protocol: as §2, §3

Tacr2 [5] = target: T3, Tacr2 (Homo sapiens, UniProt P21452); conditions: Sp Hs; cited from earlier work
T3 sequence (P21452 1-398): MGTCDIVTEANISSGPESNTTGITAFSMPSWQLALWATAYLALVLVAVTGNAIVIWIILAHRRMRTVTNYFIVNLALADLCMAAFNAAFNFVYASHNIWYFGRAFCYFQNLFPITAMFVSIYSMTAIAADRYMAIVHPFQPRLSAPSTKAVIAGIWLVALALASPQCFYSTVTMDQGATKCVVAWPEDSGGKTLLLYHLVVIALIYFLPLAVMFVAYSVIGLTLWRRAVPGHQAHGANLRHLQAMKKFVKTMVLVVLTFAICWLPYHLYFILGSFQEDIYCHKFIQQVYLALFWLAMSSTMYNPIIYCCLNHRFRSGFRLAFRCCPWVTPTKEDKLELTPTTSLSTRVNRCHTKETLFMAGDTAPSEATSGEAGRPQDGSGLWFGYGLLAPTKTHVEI

Tacr2 [6] = target: T4, Tacr2 (Rattus norvegicus, UniProt P16610); conditions: Sp Rn; cited from earlier work
T4 sequence (P16610 1-390): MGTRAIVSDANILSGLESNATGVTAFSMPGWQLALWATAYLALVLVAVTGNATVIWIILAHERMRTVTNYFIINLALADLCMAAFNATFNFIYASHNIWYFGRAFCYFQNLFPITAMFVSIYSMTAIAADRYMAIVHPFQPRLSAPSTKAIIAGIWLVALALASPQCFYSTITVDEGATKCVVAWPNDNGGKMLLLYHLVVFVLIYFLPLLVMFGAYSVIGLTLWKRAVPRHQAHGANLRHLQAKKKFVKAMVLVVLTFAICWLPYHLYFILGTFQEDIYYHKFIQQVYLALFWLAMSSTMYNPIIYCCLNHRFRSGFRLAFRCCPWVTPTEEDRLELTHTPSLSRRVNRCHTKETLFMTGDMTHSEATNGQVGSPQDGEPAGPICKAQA

Tacr2 [7] = target: T4, Tacr2; conditions: Sp Rn; cited from earlier work; remark: listed apart in the source
Tacr2 [8] = conditions: Sp Cp; cited from earlier work

Q: For `Nc1nc(CC(=O)Nc2ccc(CCNC[C@H](O)c3ccccc3)cc2)cs1` [Mirabegron], which “activation of human brown adipose” value (human brown adipose; proof-of-concept studies) is on record?
A: activate human brown adipose

Q: And the “blood pressure and heart rate” value (human brown adipose; side effects)?
A: elevated blood pressure and heart rate

Q: Which results are given for `CSCC[C@H](NC(=O)[C@H](CC(C)C)NC(=O)CNC(=O)[C@@H](NC(=O)[C@H](Cc1ccccc1)NC(=O)[C@H](CO)NC(=O)[C@H](CC(=O)O)NC(=O)[C@@H](NC(=O)[C@H](CCCCN)NC(=O)[C@@H](N)Cc1cnc[nH]1)[C@@H](C)O)C(C)C)C(N)=O` [NKA, Neurokinin A]?
A: blood glucose level after insulin treatment (ITT) ([1]; 3 h fasted, 1 IU insulin per kg lean body mass i.p., day after treatment, FIG. 4c): significant lower blood glucose level after insulin treatment; insulin sensitivity (ITT) [1]: higher insulin sensitivity; return of blood glucose to basal levels after Cmin (ITT) [1]: return to basal levels at a slower rate; metabolic parameters ([2]; 1 mg/kg NKA s.c. twice daily for 9 days): improved metabolic parameters; calorie burning (oxygen consumption) ([2]; 1 mg/kg NKA s.c. twice daily for 9 days, FIG. 4a): increased calorie burning; body weight ([2]; 1 mg/kg NKA s.c. twice daily for 9 days, FIG. 4b): significant reduction in body weight; desensitization to NKA ([2]; 9 consecutive days of treatment, FIG. 4a): not accompanied by desensitization to NKA; adipose tissue weight ([2]; tissues harvested upon termination, FIG. 4d): reduction of white adipose tissue and not brown fat; EC50 (mTacr2 [3]; LogEC50, mTacr2, 0.2% BSA): 3.54 nM; EC50 (mTacr2 [3]; LogEC50, mTacr2, 2% BSA): 12.3 nM; BSA binding affinity (mTacr2 [3]; from Tacr2 activation at 0.2% vs 2% BSA): low BSA binding affinity; Hill-Slope (mTacr2 [3]; mTacr2, 0.2% BSA): 1.082; Top (mTacr2 [3]; mTacr2, 0.2% BSA): 1788; Bottom (mTacr2 [3]; mTacr2, 2% BSA): 111.3; Hill-Slope (mTacr2 [3]; mTacr2, 2% BSA): 0.8378; Top (mTacr2 [3]; mTacr2, 2% BSA): 1719; oxygen consumption rate (OCR) (primary brown adipocytes): increases oxygen consumption rate (OCR); IP3 levels (mouse Tacr2): increases IP3 levels; EC50 (mTacr2 [4]): 8.09 nM

Q: With `CSCC[C@H](NC(=O)[C@H](CC(C)C)NC(=O)CNC(=O)[C@@H](NC(=O)[C@H](Cc1ccccc1)NC(=O)[C@H](Cc1ccccc1)NC(=O)[C@H](CC(=O)O)NC(=O)[C@H](Cc1c[nH]cn1)NC(=O)[C@H](CCSC)NC(=O)[C@@H](N)CC(=O)O)C(C)C)C(N)=O` [NKB, neurokinin B] as the molecule, how does the Affinity (Tacr2 [5]) read?
A: 5.0-7.7 pKi

Q: Which Affinity (Tacr2 [6]) does the source give for “Neurokinin A (3-10) [GR64349, Neurokinin A (3-10) [Lys3, Gly8-(R)-γ-Lactam-Leu9]]” here?
A: 8.4 pEC50

Q: Which Affinity (Tacr2 [7]) does the source give for “[Lys5,Me-Leu9, Nle10]NKA-(4-10) [[Lys5,Me-Leu9,Nle10]NKA-(4-10), DKFVGXJ, X = Me-Leu; J = Nle]” here?
A: 8.8-9.4 pIC50

Q: For [βAla8]neurokinin A-(4-10), which Affinity (Tacr2 [5]) is on record?
A: 6.0 pKd

Q: Which Affinity (Tacr2 [5]) does the source give for “hemokinin 1 (RSRTRQFYGLM; Hemokinin; UniProt Q99N14 56-66, looked up) [mammalian tachykinin (Mouse)]” here?
A: 6.3 pKi

Q: For “neuropeptide K (DADSSIEKQVALLKALYGHGQISHKRHKTDSFVGLM; Neuropeptide K; UniProt P20366 72-107, looked up) [natural agonist of Tacr2 (Human, Rat)]”, which Affinity (Tacr2 [8]) is on record?
A: 8.8 pEC50

Q: With neuropeptide γ as the molecule, how does the Affinity (Tacr2 [8]) read?
A: 9.5 pEC50
